Results from patent publication EP1734039A1, “Aryl urea compounds as BETA-secretase inhibitors” (Esbatech AG, priority 2005, dated 2006).

The compounds below were run on Aβ1-40 secretion (assay: Aβ1-40 (Sw) bioassay (cell-based, ELISA)). Conditions: Homo sapiens; concentration that reduces Aβ1-40 secretion to 50 %; supernatant of Swedish APP695 transgenic HEK293 cells.
Description: (§1) The tests performed were a) Aβ1-40 (Sw) bioassay, which measures the amount of the amyoid peptide Aβ1-40 in the supernatant of Swedish APP695 transgenic HEK293 cells in the presence of the various BACE inhibitors via ELISA (enzyme-linked immunosorbent assay). […] A SEAP-APP(Sw)695 fusion protein is transiently expressed in HEK293 cells in the presence of the various BACE inhibitors. Secretion of the SEAP moiety upon cleavage at the APP β-site is quantitated via a luminescence readout. […] The compounds were docked with the FFLD approach (Budin et al., Biol. Chem. 382, 1365-1372, 2001) and their binding energy was evaluated with the LIECE method (Huang and Caflisch, J. Med. Chem. 47, 5791-5797, 2004). The affinity evaluated with LIECE is in the low micromolar range for most of these compounds.

SMILES	IC50
CCNc1nc(NC(C)(C)C)nc(OCCNC(=O)Nc2ccccc2)n1 [Compound C5]	10 to 20 µM
CN(C)c1ccc(NC(=O)Nc2cc(C(F)(F)F)cc(C(F)(F)F)c2)cc1C(=O)NCc1ccc(F)cc1 [Compound A12]	4.2 µM
Cc1cc(C)cc(NC(=O)NCc2nnc(SCc3ccccc3)n2C)c1 [Compound B1]	18 µM
Cc1cccc(NC(=O)NCC2CCN(c3ccc(S(=O)(=O)N4CCOCC4)cc3)CC2)c1 [Compound C3]	22 µM
CCCNC(=O)c1cc(NC(=O)Nc2cccc(OC)c2)ccc1N(C)C [Compound A5]	14.3 µM
COCCCNC(=O)c1cc(NC(=O)Nc2cccc(OC)c2)ccc1N(C)C [Compound A4]	7.5 µM
Cc1ccc(NC(=O)Nc2ccc(N(C)C)c(C(=O)NCCCN3CCOCC3)c2)cc1C [Compound A6]	23 µM
CCCNC(=O)c1cc(NC(=O)Nc2ccc(CC)cc2)ccc1N(C)C [Compound A11]	5.2 µM
CSc1nnc(CCNC(=O)Nc2ccc(Cl)c(C(F)(F)F)c2)n1C(C)C [Compound B2]	40 µM
Cc1cccc(NC(=O)Nc2ccc(N(C)C)c(C(=O)NCCc3ccccc3)c2)c1 [Compound A8]	5.6 µM
CCSc1nsc(NC(=O)Nc2cccc(C(C)=O)c2)n1 [Compound B3]	1.6 µM
COc1cccc(NC(=O)Nc2nnc(C(C)Oc3ccccc3)s2)c1 (stereo not drawn) [Compound B4]	13 µM
CCOCCCNC(=O)c1cc(NC(=O)Nc2ccccc2Br)ccc1N(C)C [Compound A14]	7.8 µM
COCCCNC(=O)c1cc(NC(=O)Nc2cccc(Br)c2)ccc1N(C)C [Compound A13]	3.8 µM
COc1cc(NC(=O)Nc2ccc(N(C)C)c(C(=O)NCc3ccc(F)cc3)c2)cc(OC)c1 [Compound A10]	3.1 µM
COCCNC(=O)c1cc(NC(=O)Nc2cccc(C)c2)ccc1N(C)C [Compound A7]	12.9 µM
CN(C)c1ccc(NC(=O)Nc2cc(C(F)(F)F)cc(C(F)(F)F)c2)cc1C(=O)NCCCN1CCOCC1 [Compound A1]	3 µM
COCCCNC(=O)c1cc(NC(=O)Nc2ccc(Cl)c(Cl)c2)ccc1N(C)C [Compound A9]	5.9 µM
COCCCNC(=O)c1cc(NC(=O)Nc2cc(C(F)(F)F)cc(C(F)(F)F)c2)ccc1N(C)C [Compound A2]	3.2 µM
CCOCCCNC(=O)c1cc(NC(=O)Nc2cccc(Cl)c2)ccc1N(C)C [Compound A3]	2.6 µM

Same assay, conditions: at 12.5 µM; Swedish APP695 transgenic HEK293 cells

SMILES	% reduction of Aβ1-40 secretion
CN(C)c1nc(OCCNC(=O)Nc2ccccc2)nc(N2CCCCC2)n1 [Compound C4]	31 (12.5 µM) %

The compounds below were run on SEAP-APP(Sw)695 fusion protein (assay: SEAP bioassay (cell-based, luminescence readout)). Conditions: Homo sapiens; concentration that reduces secreted SEAP activity to 50 %; transiently transfected HEK293 cells.
Description: as §1

SMILES	IC50
CCSc1nsc(NC(=O)Nc2cccc(C(C)=O)c2)n1 [Compound B3]	10 µM
CN(C)c1ccc(NC(=O)Nc2cc(C(F)(F)F)cc(C(F)(F)F)c2)cc1C(=O)NCCCN1CCOCC1 [Compound A1]	3.5 µM

Same assay, conditions: at 1.6 µM; transiently transfected HEK293 cells

SMILES	% reduction of secreted SEAP activity
CN(C)c1ccc(NC(=O)Nc2cc(C(F)(F)F)cc(C(F)(F)F)c2)cc1C(=O)NCc1ccc(F)cc1 [Compound A12]	14 (1.6 µM) %
COc1cc(NC(=O)Nc2ccc(N(C)C)c(C(=O)NCc3ccc(F)cc3)c2)cc(OC)c1 [Compound A10]	10 (1.6 µM) %

Same assay, conditions: at 3 µM; transiently transfected HEK293 cells

SMILES	% reduction of secreted SEAP activity
Cc1cccc(NC(=O)Nc2ccc(N(C)C)c(C(=O)NCCc3ccccc3)c2)c1 [Compound A8]	14 (3 µM) %
COCCCNC(=O)c1cc(NC(=O)Nc2cccc(Br)c2)ccc1N(C)C [Compound A13]	25 (3 µM) %
COCCCNC(=O)c1cc(NC(=O)Nc2ccc(Cl)c(Cl)c2)ccc1N(C)C [Compound A9]	17 (3 µM) %
COCCCNC(=O)c1cc(NC(=O)Nc2cc(C(F)(F)F)cc(C(F)(F)F)c2)ccc1N(C)C [Compound A2]	27 (3 µM) %
CCOCCCNC(=O)c1cc(NC(=O)Nc2cccc(Cl)c2)ccc1N(C)C [Compound A3]	23 (3 µM) %

Same assay, conditions: at 6 µM; transiently transfected HEK293 cells

SMILES	% reduction of secreted SEAP activity
CCCNC(=O)c1cc(NC(=O)Nc2cccc(OC)c2)ccc1N(C)C [Compound A5]	0 (6 µM) %
COCCCNC(=O)c1cc(NC(=O)Nc2cccc(OC)c2)ccc1N(C)C [Compound A4]	21 (6 µM) %
CCCNC(=O)c1cc(NC(=O)Nc2ccc(CC)cc2)ccc1N(C)C [Compound A11]	0 (6 µM) %
CCOCCCNC(=O)c1cc(NC(=O)Nc2ccccc2Br)ccc1N(C)C [Compound A14]	0 (6 µM) %

Same assay, conditions: at 12.5 µM; transiently transfected HEK293 cells

SMILES	% reduction of secreted SEAP activity
Cc1cccc(NC(=O)NCC2CCN(c3ccc(S(=O)(=O)N4CCOCC4)cc3)CC2)c1 [Compound C3]	0 (12.5 µM) %
Cc1ccc(NC(=O)Nc2ccc(N(C)C)c(C(=O)NCCCN3CCOCC3)c2)cc1C [Compound A6]	19 (12.5 µM) %
CN(C)c1nc(OCCNC(=O)Nc2ccccc2)nc(N2CCCCC2)n1 [Compound C4]	0 (12.5 µM) %
CSc1nnc(CCNC(=O)Nc2ccc(Cl)c(C(F)(F)F)c2)n1C(C)C [Compound B2]	0 (12.5 µM) %
COc1cccc(NC(=O)Nc2nnc(C(C)Oc3ccccc3)s2)c1 (stereo not drawn) [Compound B4]	0 (12.5 µM) %
COCCNC(=O)c1cc(NC(=O)Nc2cccc(C)c2)ccc1N(C)C [Compound A7]	0 (12.5 µM) %

Same assay, conditions: at 25 µM; transiently transfected HEK293 cells

SMILES	% reduction of secreted SEAP activity
CCNc1nc(NC(C)(C)C)nc(OCCNC(=O)Nc2ccccc2)n1 [Compound C5]	0 (25 µM) %

Same assay, conditions: at 50 µM; transiently transfected HEK293 cells

SMILES	% reduction of secreted SEAP activity
Cc1cc(C)cc(NC(=O)NCc2nnc(SCc3ccccc3)n2C)c1 [Compound B1]	0 (50 µM) %

The compounds below were run against recombinant BACE enzyme (Homo sapiens, UniProt P56817) (assay: FRET assay (in vitro)). Conditions: at 50 µM.
Chain of recombinant BACE enzyme (P56817 46-501): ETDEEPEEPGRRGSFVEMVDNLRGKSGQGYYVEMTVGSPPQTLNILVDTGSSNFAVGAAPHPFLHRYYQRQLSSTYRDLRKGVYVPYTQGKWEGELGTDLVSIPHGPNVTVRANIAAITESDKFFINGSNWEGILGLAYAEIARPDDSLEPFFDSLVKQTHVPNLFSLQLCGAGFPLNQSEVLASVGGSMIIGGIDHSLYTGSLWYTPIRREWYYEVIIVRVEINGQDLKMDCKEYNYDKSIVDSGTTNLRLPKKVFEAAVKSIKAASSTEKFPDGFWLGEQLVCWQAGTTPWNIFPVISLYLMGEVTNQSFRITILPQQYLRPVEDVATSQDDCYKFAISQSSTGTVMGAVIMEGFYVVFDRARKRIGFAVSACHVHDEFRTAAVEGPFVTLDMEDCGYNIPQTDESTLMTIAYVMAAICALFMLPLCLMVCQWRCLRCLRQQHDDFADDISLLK
Format: biochemical

SMILES	% reduction of the activity of BACE
Cc1cccc(NC(=O)NCC2CCN(c3ccc(S(=O)(=O)N4CCOCC4)cc3)CC2)c1 [Compound C3]	0 (50 µM) %

Same assay, conditions: at 100 µM

SMILES	% reduction of the activity of BACE
CCCNC(=O)c1cc(NC(=O)Nc2cccc(OC)c2)ccc1N(C)C [Compound A5]	16 (100 µM) %
COCCCNC(=O)c1cc(NC(=O)Nc2cccc(OC)c2)ccc1N(C)C [Compound A4]	33 (100 µM) %
Cc1ccc(NC(=O)Nc2ccc(N(C)C)c(C(=O)NCCCN3CCOCC3)c2)cc1C [Compound A6]	21 (100 µM) %
Cc1cccc(NC(=O)Nc2ccc(N(C)C)c(C(=O)NCCc3ccccc3)c2)c1 [Compound A8]	35 (100 µM) %
CCOCCCNC(=O)c1cc(NC(=O)Nc2ccccc2Br)ccc1N(C)C [Compound A14]	0 (100 µM) %
COCCCNC(=O)c1cc(NC(=O)Nc2cccc(Br)c2)ccc1N(C)C [Compound A13]	37 (100 µM) %
COCCNC(=O)c1cc(NC(=O)Nc2cccc(C)c2)ccc1N(C)C [Compound A7]	0 (100 µM) %

Same assay, conditions: at 200 µM

SMILES	% reduction of the activity of BACE
CCCNC(=O)c1cc(NC(=O)Nc2ccc(CC)cc2)ccc1N(C)C [Compound A11]	20 (200 µM) %

Same assay, conditions: at 250 µM

SMILES	% reduction of the activity of BACE
CSc1nnc(CCNC(=O)Nc2ccc(Cl)c(C(F)(F)F)c2)n1C(C)C [Compound B2]	0 (250 µM) %

Same assay, conditions: at 500 µM

SMILES	% reduction of the activity of BACE
CCNc1nc(NC(C)(C)C)nc(OCCNC(=O)Nc2ccccc2)n1 [Compound C5]	0 (500 µM) %
Cc1cc(C)cc(NC(=O)NCc2nnc(SCc3ccccc3)n2C)c1 [Compound B1]	0 (500 µM) %
CN(C)c1nc(OCCNC(=O)Nc2ccccc2)nc(N2CCCCC2)n1 [Compound C4]	0 (500 µM) %
COc1cccc(NC(=O)Nc2nnc(C(C)Oc3ccccc3)s2)c1 (stereo not drawn) [Compound B4]	0 (500 µM) %

Same assay, conditions: concentration that reduces the activity of BACE to 50 %

SMILES	IC50
CN(C)c1ccc(NC(=O)Nc2cc(C(F)(F)F)cc(C(F)(F)F)c2)cc1C(=O)NCc1ccc(F)cc1 [Compound A12]	131 µM
COc1cc(NC(=O)Nc2ccc(N(C)C)c(C(=O)NCc3ccc(F)cc3)c2)cc(OC)c1 [Compound A10]	64 µM
COCCCNC(=O)c1cc(NC(=O)Nc2ccc(Cl)c(Cl)c2)ccc1N(C)C [Compound A9]	46 µM
COCCCNC(=O)c1cc(NC(=O)Nc2cc(C(F)(F)F)cc(C(F)(F)F)c2)ccc1N(C)C [Compound A2]	284 µM
